Results from patent publication US20260250318A1, “COMPOSITIONS AND METHODS FOR CROSSING THE BLOOD BRAIN BARRIER” (VOYAGER THERAPEUTICS, INC., priority 2022, published 2026).

System: brains, heart, liver, muscle, and DRG of the NHPs
Experiment: Maturation of TTM-001 and TTM-002 capsids, NGS enrichment in NHP tissues
Type: in vivo
Text: This Example describes maturation of the AAV9 capsid variants, TTM-001 (SEQ ID NO: 981 (amino acid) and 983 (DNA), comprising SEQ ID NO: 941 (encoded by SEQ ID NO: 942)) and TTM-002 (SEQ ID NO: 982 (amino acid) and 984 (DNA), comprising SEQ ID NO: […] (encoded by SEQ ID NO: 944)) in NHPs to further enhance their transduction and biodistribution in the central nervous system as well as other tissues, and evolve the AAV capsid variants to provide further cross-species compatibility. Two approaches were used to mature the TTM-001 and TTM-002 capsid sequences in order to randomize and mutate within and around the peptide insert comprised within loop IV of the capsid variant. […] In the first maturation approach, sets of three contiguous amino acids were randomized across the mutagenesis region in the TTM-001 and TTM-002 sequences, which spanned from position 450 to position 466, numbered according to SEQ ID NO: 981 and 982. In the second maturation approach, mutagenic primers were used to introduce point mutations at a low frequency, scattered across the mutagenesis region in the TTM-001 and TTM-002 sequences ranging from position 449 to position 466, numbered according to SEQ ID NO: 981 and 982. AAV capsid variants arising from each maturation approach for TTM-001 and TTM-002 were pooled together, for subsequent testing and characterization in NHPs.
The library of pooled matured AAV capsid variants generated using the first maturation approach and the second maturation approach for the TTM-001 and TTM-002 AAV capsid variants were injected into two NHPs. […] Following RNA recovery and RT-PCR amplification, a systematic NGS enrichment analysis was performed to calculate the fold enrichment ratio relative to an AAV9 control, and the peptides comprised within the variants were identified.
Following the RNA recovery and NGS analysis from the second maturation approach, approximately 680,000 capsid variants were identified. The 680,000 matured capsid variants were then filtered based on samples with a raw virus count greater than 10 and a coefficient of variance (CV) of less than 1, which was calculated for each peptide across the brain samples taken from the two NHPs. […] Using this filtering criteria, this led to approximately 64,000 matured capsid variants.

[1] = NHP DRG, NGS, relative to AAV9 control
[2] = NHP brain, NGS, relative to AAV9 control
[3] = NHP heart, NGS, relative to AAV9 control
[4] = NHP liver DNA, NGS, relative to AAV9 control
[5] = NHP liver RNA, NGS, TTM-001 and TTM-002 matured AAV capsid variants, relative to AAV9 control
[6] = NHP muscle, NGS, relative to AAV9 control

Row | Sequence | Fold Enrichment relative to AAV9, DRG (NHP) [1] | Fold Enrichment relative to AAV9, Brain (NHP) [2] | Fold Enrichment relative to AAV9, Heart (NHP) [3] | Fold Enrichment relative to AAV9, Liver DNA (NHP) [4] | Fold Enrichment relative to AAV9, Liver RNA (NHP) [5] | Fold Enrichment relative to AAV9, Muscle (NHP) [6] | Fold Enrichment relative to AAV9, DRG (NHP) (NGS fold-enrichment, DRG, NHP, relative to AAV9) | Fold Enrichment relative to AAV9, Brain (NHP) (NGS fold-enrichment, brain, NHP, relative to AAV9) | Fold Enrichment relative to AAV9, Heart (NHP) (NGS fold-enrichment, heart, NHP, relative to AAV9) | Fold Enrichment relative to AAV9, Liver DNA (NHP) (NGS fold-enrichment, liver DNA, NHP, relative to AAV9) | Fold Enrichment relative to AAV9, Liver RNA (NHP) (NGS fold-enrichment, liver RNA, NHP, relative to AAV9) | Fold Enrichment relative to AAV9, Muscle (NHP) (NGS fold-enrichment, muscle, NHP, relative to AAV9)
1 | KTINGSGSPHSYLVNQQT | 0.000 fold | 0.000 fold | 0.000 fold | 1.267 fold | 17.766 fold | 0.000 fold | – | – | – | – | – | –
2 | KTINGSGSPHSYMRNQQT | 0.000 fold | 0.000 fold | 0.000 fold | 2.293 fold | 20.007 fold | 0.000 fold | – | – | – | – | – | –
3 | KTINGSGSPHSYTRNQQT | 0.000 fold | 0.000 fold | 0.000 fold | 1.986 fold | 14.535 fold | 0.000 fold | – | – | – | – | – | –
4 | KTINGSGSPHSYYSNQQT | – | – | – | – | – | – | 0.000 fold | 0.000 fold | 0.000 fold | 2.856 fold | 10.680 fold | 0.000 fold
5 | KTINGSGSPHVNCQNQQT | 0.000 fold | 0.000 fold | 0.000 fold | 6.122 fold | 30.010 fold | 0.000 fold | – | – | – | – | – | –
6 | KTINGSGSPHVPWQNQQT | 0.000 fold | 0.000 fold | 0.000 fold | 3.435 fold | 25.294 fold | 0.000 fold | – | – | – | – | – | –
7 | KTINGSGSPHVYHQNQQT | 0.000 fold | 0.000 fold | 0.000 fold | 1.733 fold | 14.770 fold | 0.000 fold | – | – | – | – | – | –
8 | KTINGSGSPHVYYQNQQT | 0.000 fold | 0.944 fold | 0.246 fold | 2.173 fold | 53.294 fold | 5.268 fold | – | – | – | – | – | –
9 | KTINGSGSPHWSYQNQQT | 0.000 fold | 0.000 fold | 0.000 fold | 3.751 fold | 28.607 fold | 0.000 fold | – | – | – | – | – | –
10 | KTINGSGSPHWVAQNQQT | 0.000 fold | 0.000 fold | 0.000 fold | 3.634 fold | 11.703 fold | 0.000 fold | – | – | – | – | – | –
11 | KTINGSGSPHWVPQNQQT | 0.000 fold | 0.000 fold | 0.000 fold | 3.219 fold | 22.907 fold | 0.000 fold | – | – | – | – | – | –
12 | KTINGSGSPHYGIQNQQT | 0.000 fold | 0.000 fold | 0.000 fold | 1.076 fold | 30.908 fold | 0.000 fold | – | – | – | – | – | –
13 | KTINGSGSPHYRYQNQQT | 0.000 fold | 0.000 fold | 0.000 fold | 1.027 fold | 14.107 fold | 0.000 fold | – | – | – | – | – | –
